# Test results taken from patent US9580463B2 (BRISTOL-MYERS SQUIBB COMPANY, priority 2013, dated 2017).
# Read-outs that look alike come from different tables or passages of the source.
# What was measured:
# [1] = tested on: HCV genotype 1a (H77 strain) replicon in HUH-7 cells; assay: HCV replicon luciferase reporter assay, genotype 1a; format: cell-based; settings: Hepatitis C virus, 72 h, genotype 1a replicon, 3 days incubation
# Method in brief: (§1)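 Twenty-point, threefold compound titrations (0.5% DMSO) were incubated 3 days at 37 °C with 3.0×10^3 HUH-7 cells/well in 4% FCS. The cells stably carried luciferase replicons: genotype 1b Con1 (S1179I) or 1a H77 (NS3 P1496L, NS5A S2204I). Renilla signal was read after 2 h with 7.5 μM EnduRen, and EC50 was taken from a four-parameter logistic fit. Cytotoxicity (CC50) was measured by Cell Titer-Blue, 8 h.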
# [2] = tested on: HCV genotype 1b (Con1) replicon in HUH-7 cells; assay: HCV replicon luciferase reporter assay, genotype 1b; format: cell-based; settings: Hepatitis C virus, 72 h, genotype 1b replicon, 3 days incubation
# Method in brief: as §1
Compound,"EC50 ([1]; read-out: LE_1a (EC50, range)) [nM]","EC50 ([2]; read-out: LE_1b (EC50, range)) [nM]",EC50 ([1]; read-out: LE_1a (EC50)) [nM],EC50 ([2]; read-out: LE_1b (EC50)) [nM]
"COC[C@@H]1C[C@@H](C)CC/C=C\[C@@H]2C[C@@]2(C(=O)NS(=O)(=O)C2(C)CC2)NC(=O)[C@@H]2C[C@@H](Oc3nc4cc(OC)ccc4nc3C(F)(F)F)CN2C(=O)[C@H]1NC(=O)OC(C)(C)C [Compound 1027, tert-butyl ((2R,6S,7R,9S,13aS,14aR,16aS,Z)-2-((7-methoxy-3-(trifluoromethyl)quinoxalin-2-yl)oxy)-7-(methoxymethyl)-9-methyl-14a-(((1-methylcyclopropyl)sulfonyl)carbamoyl)-5,16-dioxo-1,2,3,5,6,7,8,9,10,11,13a,14,14a,15,16,16a-hexadecahydrocyclopropa[e]pyrrolo[1,2-a][1,4]diazacyclopentadecin-6-yl)carbamate]",5.01 to 35,1.01 to 5,,
"COC[C@@H]1C[C@H](C)CC/C=C\[C@@H]2C[C@@]2(C(=O)NS(=O)(=O)C2(C)CC2)NC(=O)[C@@H]2C[C@@H](Oc3nc4cc(OC)ccc4nc3C(F)(F)F)CN2C(=O)[C@H]1NC(=O)OC(C)(C)C [Compound 1028, tert-butyl ((2R,6S,7R,9R,13aS,14aR,16aS,Z)-2-((7-methoxy-3-(trifluoromethyl)quinoxalin-2-yl)oxy)-7-(methoxymethyl)-9-methyl-14a-(((1-methylcyclopropyl)sulfonyl)carbamoyl)-5,16-dioxo-1,2,3,5,6,7,8,9,10,11,13a,14,14a,15,16,16a-hexadecahydrocyclopropa[e]pyrrolo[1,2-a][1,4]diazacyclopentadecin-6-yl)carbamate]",0.51 to 1,0.1 to 0.5,,
"COC[C@@H]1C[C@@H](C)CC/C=C\[C@@H]2C[C@@]2(C(=O)NS(=O)(=O)C2(C)CC2)NC(=O)[C@@H]2C[C@@H](Oc3nc4cc(OC)ccc4nc3C(C)C)CN2C(=O)[C@H]1NC(=O)OC(C)(C)C [Compound 1029, tert-butyl ((2R,6S,7R,9S,13aS,14aR,16aS,Z)-2-((3-isopropyl-7-methoxyquinoxalin-2-yl)oxy)-7-(methoxymethyl)-9-methyl-14a-(((1-methylcyclopropyl)sulfonyl)carbamoyl)-5,16-dioxo-1,2,3,5,6,7,8,9,10,11,13a,14,14a,15,16,16a-hexadecahydrocyclopropa[e]pyrrolo[1,2-a][1,4]diazacyclopentadecin-6-yl)carbamate]",1.01 to 5,0.51 to 1,1.78,0.63
"COC[C@@H]1C[C@H](C)CC/C=C\[C@@H]2C[C@@]2(C(=O)NS(=O)(=O)C2(C)CC2)NC(=O)[C@@H]2C[C@@H](Oc3nc4cc(OC)ccc4nc3C(C)C)CN2C(=O)[C@H]1NC(=O)OC(C)(C)C [Compound 1030, tert-butyl ((2R,6S,7R,9R,13aS,14aR,16aS,Z)-2-((3-isopropyl-7-methoxyquinoxalin-2-yl)oxy)-7-(methoxymethyl)-9-methyl-14a-(((1-methylcyclopropyl)sulfonyl)carbamoyl)-5,16-dioxo-1,2,3,5,6,7,8,9,10,11,13a,14,14a,15,16,16a-hexadecahydrocyclopropa[e]pyrrolo[1,2-a][1,4]diazacyclopentadecin-6-yl)carbamate]",35 to 620,5.01 to 35,,
"COC[C@@H]1C[C@@H](C)CC/C=C\[C@@H]2C[C@@]2(C(=O)NS(=O)(=O)C2(C)CC2)NC(=O)[C@@H]2C[C@@H](Oc3nc4cc(OC)ccc4nc3C(F)(F)F)CN2C(=O)[C@H]1NC(=O)OC(C)(C)C(F)(F)F [Compound 1031, 1,1,1-trifluoro-2-methylpropan-2-yl ((2R,6S,7R,9S,13aS,14aR,16aS,Z)-2-((7-methoxy-3-(trifluoromethyl)quinoxalin-2-yl)oxy)-7-(methoxymethyl)-9-methyl-14a-(((1-methylcyclopropyl)sulfonyl)carbamoyl)-5,16-dioxo-1,2,3,5,6,7,8,9,10,11,13a,14,14a,15,16,16a-hexadecahydrocyclopropa[e]pyrrolo[1,2-a][1,4]diazacyclopentadecin-6-yl)carbamate]",5.01 to 35,1.01 to 5,,
"COC[C@@H]1C[C@H](C)CC/C=C\[C@@H]2C[C@@]2(C(=O)NS(=O)(=O)C2(C)CC2)NC(=O)[C@@H]2C[C@@H](Oc3nc4cc(OC)ccc4nc3C(F)(F)F)CN2C(=O)[C@H]1NC(=O)OC(C)(C)C(F)(F)F [Compound 1032, 1,1,1-trifluoro-2-methylpropan-2-yl ((2R,6S,7R,9R,13aS,14aR,16aS,Z)-2-((7-methoxy-3-(trifluoromethyl)quinoxalin-2-yl)oxy)-7-(methoxymethyl)-9-methyl-14a-(((1-methylcyclopropyl)sulfonyl)carbamoyl)-5,16-dioxo-1,2,3,5,6,7,8,9,10,11,13a,14,14a,15,16,16a-hexadecahydrocyclopropa[e]pyrrolo[1,2-a][1,4]diazacyclopentadecin-6-yl)carbamate]",0.51 to 1,0.1 to 0.5,,
"COC[C@@H]1C[C@@H](C)CC/C=C\[C@@H]2C[C@@]2(C(=O)NS(=O)(=O)C2(C)CC2)NC(=O)[C@@H]2C[C@@H](Oc3nc4cc(OC)ccc4nc3C(C)C)CN2C(=O)[C@H]1NC(=O)OC(C)(C)C(F)(F)F [Compound 1033, 1,1,1-trifluoro-2-methylpropan-2-yl ((2R,6S,7R,9S,13aS,14aR,16aS,Z)-2-((3-isopropyl-7-methoxyquinoxalin-2-yl)oxy)-7-(methoxymethyl)-9-methyl-14a-(((1-methylcyclopropyl)sulfonyl)carbamoyl)-5,16-dioxo-1,2,3,5,6,7,8,9,10,11,13a,14,14a,15,16,16a-hexadecahydrocyclopropa[e]pyrrolo[1,2-a][1,4]diazacyclopentadecin-6-yl)carbamate]",5.01 to 35,1.01 to 5,,
"COC[C@@H]1C[C@H](C)CC/C=C\[C@@H]2C[C@@]2(C(=O)NS(=O)(=O)C2(C)CC2)NC(=O)[C@@H]2C[C@@H](Oc3nc4cc(OC)ccc4nc3C(C)C)CN2C(=O)[C@H]1NC(=O)OC(C)(C)C(F)(F)F [Compound 1034, 1,1,1-trifluoro-2-methylpropan-2-yl ((2R,6S,7R,9R,13aS,14aR,16aS,Z)-2-((3-isopropyl-7-methoxyquinoxalin-2-yl)oxy)-7-(methoxymethyl)-9-methyl-14a-(((1-methylcyclopropyl)sulfonyl)carbamoyl)-5,16-dioxo-1,2,3,5,6,7,8,9,10,11,13a,14,14a,15,16,16a-hexadecahydrocyclopropa[e]pyrrolo[1,2-a][1,4]diazacyclopentadecin-6-yl)carbamate]",1.01 to 5,0.51 to 1,,
"COC[C@@H]1C[C@H](C)CC/C=C\[C@@H]2C[C@@]2(C(=O)NS(=O)(=O)C2(CF)CC2)NC(=O)[C@@H]2C[C@@H](Oc3nc4cc(OC)ccc4nc3C(F)(F)F)CN2C(=O)[C@H]1NC(=O)OC(C)(C)C [Compound 1035, tert-butyl ((2R,6S,7R,9R,13aS,14aR,16aS,Z)-14a-(((1-(fluoromethyl)cyclopropyl)sulfonyl)carbamoyl)-2-((7-methoxy-3-(trifluoromethyl)quinoxalin-2-yl)oxy)-7-(methoxymethyl)-9-methyl-5,16-dioxo-1,2,3,5,6,7,8,9,10,11,13a,14,14a,15,16,16a-hexadecahydrocyclopropa[e]pyrrolo[1,2-a][1,4]diazacyclopentadecin-6-yl)carbamate]",1.01 to 5,1.01 to 5,,
